Experimental findings from ChEMBL document CHEMBL5678818, “Discovery of potent SOS1 inhibitors that block RAS activation via disruption of the RAS-SOS1 interaction” (Proc Natl Acad Sci U S A, 2019) are described below.

The structures appear in SMILES notation.

The species entered for one assay is Homo sapiens. Nature of the assay: Inhibition of JNK3 (unknown origin) assessed as residual activity at 1000 nM by KINOMEscan analysis relative to control.
Assay [1] has as its target Death-associated protein kinase 2 (Homo sapiens) (UniProt Q9UIK4). Nature of the assay: Inhibition of DAPK2 (unknown origin) assessed as residual activity at 1000 nM by KINOMEscan analysis relative to control.
Assay [2] has as its target T1, Cyclin-dependent kinase 11A (Homo sapiens) (UniProt Q9UQ88).
T1 sequence (whole entry): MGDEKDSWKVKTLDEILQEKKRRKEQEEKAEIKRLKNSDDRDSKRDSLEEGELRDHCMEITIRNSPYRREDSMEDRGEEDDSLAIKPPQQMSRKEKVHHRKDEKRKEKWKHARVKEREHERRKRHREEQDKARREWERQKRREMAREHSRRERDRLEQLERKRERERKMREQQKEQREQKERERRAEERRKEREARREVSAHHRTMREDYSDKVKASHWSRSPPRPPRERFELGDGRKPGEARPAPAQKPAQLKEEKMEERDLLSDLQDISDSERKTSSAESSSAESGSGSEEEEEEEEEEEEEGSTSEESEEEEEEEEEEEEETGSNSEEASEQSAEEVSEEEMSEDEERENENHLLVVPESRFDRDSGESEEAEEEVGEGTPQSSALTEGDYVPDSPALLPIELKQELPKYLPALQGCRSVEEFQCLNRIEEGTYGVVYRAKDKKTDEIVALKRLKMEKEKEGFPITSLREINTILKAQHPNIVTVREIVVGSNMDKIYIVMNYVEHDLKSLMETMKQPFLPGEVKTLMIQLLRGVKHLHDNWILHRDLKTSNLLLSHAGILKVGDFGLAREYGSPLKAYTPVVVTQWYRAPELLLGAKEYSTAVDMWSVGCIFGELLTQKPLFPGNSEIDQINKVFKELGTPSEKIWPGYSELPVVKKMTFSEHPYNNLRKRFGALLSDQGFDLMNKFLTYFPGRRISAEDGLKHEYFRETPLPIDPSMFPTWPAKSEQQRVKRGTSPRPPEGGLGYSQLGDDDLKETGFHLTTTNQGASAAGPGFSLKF
Nature of the assay: Inhibition of CDC2L2 (unknown origin) assessed as residual activity at 1000 nM by KINOMEscan analysis relative to control.

The target in assay [3] is Bone morphogenetic protein receptor type-1B (Homo sapiens) (UniProt O00238). Nature of the assay: Inhibition of BMPR1B (unknown origin) assessed as residual activity at 1000 nM by KINOMEscan analysis relative to control.
Assay [4] has as its system ALK tyrosine kinase receptor (Homo sapiens), Q9UM73 [L1196M]. Nature of the assay: Inhibition of ALK L1196M mutant (unknown origin) assessed as residual activity at 1000 nM by KINOMEscan analysis relative to control.
Assay [5] addresses Platelet-derived growth factor receptor alpha (Homo sapiens) (UniProt P16234). Nature of the assay: Inhibition of PDGFRA (unknown origin) assessed as residual activity at 1000 nM by KINOMEscan analysis relative to control.
The target in assay [6] is T2, Serine/threonine-protein kinase 3 (Homo sapiens) (UniProt Q13188).
T2 sequence (whole entry): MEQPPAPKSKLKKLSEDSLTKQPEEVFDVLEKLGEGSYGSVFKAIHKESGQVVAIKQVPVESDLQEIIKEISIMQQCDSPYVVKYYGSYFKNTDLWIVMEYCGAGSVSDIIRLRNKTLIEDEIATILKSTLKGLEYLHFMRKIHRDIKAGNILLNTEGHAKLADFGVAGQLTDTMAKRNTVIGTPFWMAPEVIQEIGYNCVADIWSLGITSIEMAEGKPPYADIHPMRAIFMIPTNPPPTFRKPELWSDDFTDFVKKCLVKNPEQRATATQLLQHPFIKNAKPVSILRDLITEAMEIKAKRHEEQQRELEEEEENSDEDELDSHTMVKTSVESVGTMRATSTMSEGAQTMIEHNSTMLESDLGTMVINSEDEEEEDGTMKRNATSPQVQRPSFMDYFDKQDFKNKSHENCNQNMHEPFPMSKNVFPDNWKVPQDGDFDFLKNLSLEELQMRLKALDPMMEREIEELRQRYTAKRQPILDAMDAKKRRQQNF
Nature of the assay: Inhibition of MST2 (unknown origin) assessed as residual activity at 1000 nM by KINOMEscan analysis relative to control.

Assay [7] has as its system Tyrosine-protein kinase ABL1 (Homo sapiens), P00519 [F317L]. Nature of the assay: Inhibition of nonphosphorylated ABL1 F317L mutant (unknown origin) assessed as residual activity at 1000 nM by KINOMEscan analysis relative to control.
Assay [8] concerns the target T3, Serine/threonine-protein kinase BRSK1 (Homo sapiens) (UniProt Q8TDC3).
T3 sequence (whole entry): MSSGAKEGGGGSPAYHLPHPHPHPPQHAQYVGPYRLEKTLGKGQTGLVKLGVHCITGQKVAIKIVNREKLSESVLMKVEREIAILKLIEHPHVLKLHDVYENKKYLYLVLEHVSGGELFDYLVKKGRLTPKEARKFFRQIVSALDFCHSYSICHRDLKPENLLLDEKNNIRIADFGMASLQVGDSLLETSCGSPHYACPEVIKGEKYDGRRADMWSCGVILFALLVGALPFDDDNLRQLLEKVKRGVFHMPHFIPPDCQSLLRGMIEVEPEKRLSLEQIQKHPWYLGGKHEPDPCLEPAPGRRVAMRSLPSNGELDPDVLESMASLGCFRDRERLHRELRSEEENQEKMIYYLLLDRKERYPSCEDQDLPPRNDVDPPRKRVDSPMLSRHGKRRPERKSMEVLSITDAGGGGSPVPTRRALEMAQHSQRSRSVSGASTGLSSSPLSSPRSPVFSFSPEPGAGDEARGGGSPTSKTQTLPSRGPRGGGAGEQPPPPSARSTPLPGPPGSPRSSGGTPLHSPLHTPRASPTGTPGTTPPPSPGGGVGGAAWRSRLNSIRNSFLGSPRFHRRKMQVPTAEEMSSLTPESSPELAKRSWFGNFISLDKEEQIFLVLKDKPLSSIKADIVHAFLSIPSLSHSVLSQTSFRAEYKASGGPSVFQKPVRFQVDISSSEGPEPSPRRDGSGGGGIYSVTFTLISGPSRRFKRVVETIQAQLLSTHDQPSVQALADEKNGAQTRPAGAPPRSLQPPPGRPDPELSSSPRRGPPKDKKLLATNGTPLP
Nature of the assay: Inhibition of BRSK1 (unknown origin) assessed as residual activity at 1000 nM by KINOMEscan analysis relative to control.

Chain of ALK tyrosine kinase receptor (Homo sapiens), Q9UM73 [L1196M] (Q9UM73 whole entry L1196M, looked up): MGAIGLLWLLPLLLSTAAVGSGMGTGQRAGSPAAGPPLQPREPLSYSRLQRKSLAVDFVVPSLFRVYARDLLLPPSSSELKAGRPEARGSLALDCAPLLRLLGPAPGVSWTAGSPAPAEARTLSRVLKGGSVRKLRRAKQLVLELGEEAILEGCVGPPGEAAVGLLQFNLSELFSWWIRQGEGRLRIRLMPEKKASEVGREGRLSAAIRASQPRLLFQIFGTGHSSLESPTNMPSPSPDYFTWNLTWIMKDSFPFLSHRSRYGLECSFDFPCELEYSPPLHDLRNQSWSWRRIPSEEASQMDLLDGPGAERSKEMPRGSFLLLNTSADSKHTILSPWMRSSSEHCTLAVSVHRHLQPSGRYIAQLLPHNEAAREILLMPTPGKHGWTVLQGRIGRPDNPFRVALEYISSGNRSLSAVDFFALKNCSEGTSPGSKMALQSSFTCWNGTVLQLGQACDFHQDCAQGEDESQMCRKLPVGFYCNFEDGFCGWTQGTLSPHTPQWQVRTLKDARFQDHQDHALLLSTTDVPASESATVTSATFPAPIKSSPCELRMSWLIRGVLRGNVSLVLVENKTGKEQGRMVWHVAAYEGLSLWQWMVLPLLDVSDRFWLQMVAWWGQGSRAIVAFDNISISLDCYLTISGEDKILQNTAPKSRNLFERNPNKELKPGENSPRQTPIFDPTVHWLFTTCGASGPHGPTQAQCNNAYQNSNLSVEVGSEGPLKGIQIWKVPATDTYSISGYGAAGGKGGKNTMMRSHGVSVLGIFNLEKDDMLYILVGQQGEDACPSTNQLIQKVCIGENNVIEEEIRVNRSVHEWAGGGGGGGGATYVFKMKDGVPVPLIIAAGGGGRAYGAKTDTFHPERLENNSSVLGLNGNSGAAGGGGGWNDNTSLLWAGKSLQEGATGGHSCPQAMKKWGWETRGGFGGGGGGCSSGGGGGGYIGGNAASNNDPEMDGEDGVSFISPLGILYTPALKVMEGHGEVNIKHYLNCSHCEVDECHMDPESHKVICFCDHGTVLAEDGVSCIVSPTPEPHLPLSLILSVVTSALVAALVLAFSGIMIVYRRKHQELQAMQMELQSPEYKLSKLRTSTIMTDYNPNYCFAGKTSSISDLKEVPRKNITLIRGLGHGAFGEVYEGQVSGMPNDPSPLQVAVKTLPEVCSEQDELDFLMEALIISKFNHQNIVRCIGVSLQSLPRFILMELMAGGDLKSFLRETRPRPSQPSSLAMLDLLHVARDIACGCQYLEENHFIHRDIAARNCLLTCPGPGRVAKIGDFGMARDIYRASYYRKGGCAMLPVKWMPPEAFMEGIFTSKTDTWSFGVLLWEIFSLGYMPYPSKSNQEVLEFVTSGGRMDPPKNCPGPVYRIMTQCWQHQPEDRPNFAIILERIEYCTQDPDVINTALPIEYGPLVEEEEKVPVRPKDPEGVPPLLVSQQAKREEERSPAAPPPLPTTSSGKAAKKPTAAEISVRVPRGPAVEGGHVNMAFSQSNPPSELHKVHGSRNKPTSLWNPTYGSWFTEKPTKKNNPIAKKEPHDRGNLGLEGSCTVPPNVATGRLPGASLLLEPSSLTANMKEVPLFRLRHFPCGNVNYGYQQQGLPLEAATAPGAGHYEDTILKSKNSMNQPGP
Chain of Tyrosine-protein kinase ABL1 (Homo sapiens), P00519 [F317L] (P00519 whole entry F317L): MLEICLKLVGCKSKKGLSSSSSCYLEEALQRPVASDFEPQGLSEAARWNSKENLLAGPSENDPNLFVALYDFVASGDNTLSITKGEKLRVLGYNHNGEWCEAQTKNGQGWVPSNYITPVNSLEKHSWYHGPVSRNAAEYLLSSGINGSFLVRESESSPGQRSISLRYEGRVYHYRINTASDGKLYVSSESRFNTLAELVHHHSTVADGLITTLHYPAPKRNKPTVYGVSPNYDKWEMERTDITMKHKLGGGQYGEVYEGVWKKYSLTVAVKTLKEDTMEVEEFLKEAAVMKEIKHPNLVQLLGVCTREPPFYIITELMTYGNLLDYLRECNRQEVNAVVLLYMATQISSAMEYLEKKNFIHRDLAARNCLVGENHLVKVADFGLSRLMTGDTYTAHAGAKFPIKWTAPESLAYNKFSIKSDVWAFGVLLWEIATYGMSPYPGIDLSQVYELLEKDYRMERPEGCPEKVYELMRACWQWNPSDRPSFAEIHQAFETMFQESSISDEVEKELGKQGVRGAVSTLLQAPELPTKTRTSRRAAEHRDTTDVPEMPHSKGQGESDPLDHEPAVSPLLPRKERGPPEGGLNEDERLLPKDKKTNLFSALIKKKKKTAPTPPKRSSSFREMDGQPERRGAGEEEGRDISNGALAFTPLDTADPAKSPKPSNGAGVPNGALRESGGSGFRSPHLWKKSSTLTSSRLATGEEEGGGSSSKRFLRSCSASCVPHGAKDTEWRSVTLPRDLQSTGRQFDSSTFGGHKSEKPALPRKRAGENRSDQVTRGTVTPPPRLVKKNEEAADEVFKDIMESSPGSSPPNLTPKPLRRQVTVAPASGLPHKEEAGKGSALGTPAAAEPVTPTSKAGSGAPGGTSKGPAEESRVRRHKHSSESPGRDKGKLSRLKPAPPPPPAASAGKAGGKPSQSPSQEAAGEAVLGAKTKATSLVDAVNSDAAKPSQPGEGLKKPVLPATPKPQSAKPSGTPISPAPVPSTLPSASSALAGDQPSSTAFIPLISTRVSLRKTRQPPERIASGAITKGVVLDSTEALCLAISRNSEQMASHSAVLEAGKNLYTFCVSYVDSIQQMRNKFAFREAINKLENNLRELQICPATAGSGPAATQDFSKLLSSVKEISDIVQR
Chain of Bone morphogenetic protein receptor type-1B (Homo sapiens) (O00238 whole entry): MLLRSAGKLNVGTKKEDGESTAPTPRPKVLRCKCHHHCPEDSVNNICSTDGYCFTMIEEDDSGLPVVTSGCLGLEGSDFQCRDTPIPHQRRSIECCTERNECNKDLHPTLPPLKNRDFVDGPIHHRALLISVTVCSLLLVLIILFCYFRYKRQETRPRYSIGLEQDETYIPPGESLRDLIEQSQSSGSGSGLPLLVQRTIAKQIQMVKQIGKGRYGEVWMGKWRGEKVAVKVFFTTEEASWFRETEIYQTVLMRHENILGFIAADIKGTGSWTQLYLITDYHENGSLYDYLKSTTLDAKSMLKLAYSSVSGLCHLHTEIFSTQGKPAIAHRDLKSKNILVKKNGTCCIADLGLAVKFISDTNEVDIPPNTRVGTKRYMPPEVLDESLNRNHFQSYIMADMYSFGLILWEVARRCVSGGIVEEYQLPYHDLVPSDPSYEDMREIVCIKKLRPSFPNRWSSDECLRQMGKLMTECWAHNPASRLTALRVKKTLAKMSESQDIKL
Chain of Platelet-derived growth factor receptor alpha (Homo sapiens) (P16234 whole entry): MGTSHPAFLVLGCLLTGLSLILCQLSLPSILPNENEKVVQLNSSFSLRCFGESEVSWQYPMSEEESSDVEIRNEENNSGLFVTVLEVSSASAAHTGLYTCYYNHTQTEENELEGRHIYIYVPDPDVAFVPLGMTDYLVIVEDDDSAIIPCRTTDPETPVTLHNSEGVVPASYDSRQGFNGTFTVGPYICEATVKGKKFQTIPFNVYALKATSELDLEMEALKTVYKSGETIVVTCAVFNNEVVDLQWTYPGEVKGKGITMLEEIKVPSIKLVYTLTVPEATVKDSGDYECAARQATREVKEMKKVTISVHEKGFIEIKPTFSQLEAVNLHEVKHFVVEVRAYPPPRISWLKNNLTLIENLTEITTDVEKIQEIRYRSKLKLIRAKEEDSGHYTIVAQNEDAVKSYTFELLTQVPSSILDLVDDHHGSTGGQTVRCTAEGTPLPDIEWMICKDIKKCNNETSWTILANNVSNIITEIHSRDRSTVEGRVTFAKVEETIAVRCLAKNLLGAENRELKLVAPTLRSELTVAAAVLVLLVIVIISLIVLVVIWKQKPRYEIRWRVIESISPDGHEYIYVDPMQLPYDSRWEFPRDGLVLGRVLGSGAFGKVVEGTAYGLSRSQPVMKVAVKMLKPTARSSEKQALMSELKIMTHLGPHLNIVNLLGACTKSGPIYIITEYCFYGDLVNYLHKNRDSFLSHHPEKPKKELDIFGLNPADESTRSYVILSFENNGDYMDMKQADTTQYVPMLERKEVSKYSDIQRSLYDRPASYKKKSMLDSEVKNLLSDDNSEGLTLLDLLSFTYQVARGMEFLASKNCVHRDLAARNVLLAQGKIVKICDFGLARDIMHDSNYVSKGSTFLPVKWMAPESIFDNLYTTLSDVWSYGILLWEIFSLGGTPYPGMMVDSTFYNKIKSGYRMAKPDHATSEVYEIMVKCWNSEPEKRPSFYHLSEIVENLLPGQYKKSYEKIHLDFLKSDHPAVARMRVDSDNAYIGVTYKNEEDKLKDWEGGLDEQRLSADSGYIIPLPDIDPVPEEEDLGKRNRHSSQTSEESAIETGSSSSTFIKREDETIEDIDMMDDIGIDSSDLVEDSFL
Chain of Death-associated protein kinase 2 (Homo sapiens) (Q9UIK4 whole entry, looked up): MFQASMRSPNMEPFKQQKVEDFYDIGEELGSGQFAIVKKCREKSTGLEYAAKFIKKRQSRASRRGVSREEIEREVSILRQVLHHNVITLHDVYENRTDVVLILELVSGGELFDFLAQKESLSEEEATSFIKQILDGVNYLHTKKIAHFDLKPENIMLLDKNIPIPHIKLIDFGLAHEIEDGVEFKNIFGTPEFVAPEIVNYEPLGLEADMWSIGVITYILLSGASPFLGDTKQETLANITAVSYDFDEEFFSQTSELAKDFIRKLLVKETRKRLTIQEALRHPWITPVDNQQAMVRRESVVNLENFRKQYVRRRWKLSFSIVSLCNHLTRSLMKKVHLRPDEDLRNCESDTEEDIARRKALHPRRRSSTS

Regarding `COc1cc2ncnc(N[C@H](C)c3cccc4ccccc34)c2cc1OC`, the Activity is 97% in the assay filed under Homo sapiens; 99% in assay [1]; 99% in assay [2]; 94% in assay [3]; 80% in [4]; 100% in assay [5]. Moreover, the Activity was found to be 96% in assay [6], 99% in [7] and 100% in assay [8].
As for `COc1cc2nc(C)nc(N[C@H](C)c3cccc(-c4cn[nH]c4)c3)c2cc1OC`, the Activity was 80% in the assay listed under Homo sapiens; 73% in assay [1]; 100% in [2]; 98% in assay [3]; 67% in [4]; 100% in [5]. Besides, the Activity in [6] worked out at 79%; in assay [7] it was 99%; in assay [8] it was 100%.
